This is an account of results in paper PMC7385619, “A triple action CDK4/6-PI3K-BET inhibitor with augmented cancer cell cytotoxicity” (Cell Discovery, 2020).

SMILES strings stand for the structures.

What all share (assay type): cell-based
In test [1] the test system is Hepatocellular carcinoma cells (Hep3B, HepG2, and Huh7). As to the kind of experiment: Cell viability (cytotoxicity) assay, hepatocellular carcinoma cells. The settings on record: Homo sapiens; 48 hours, CCK8 or Alamar Blue; curves of Fig. 1f-j; read-out: Half maximal inhibitory concentration (IC50) in cell line cytotoxicity assays, Hepatocellular Carcinoma. (In general: Alamar Blue is a resazurin reagent that responds to reducing activity.)

Test [2] has as its system neuroblastoma cells (CHLA-255, CHLA-136, and SMS-KNCR). As to the kind of experiment: Cell viability (cytotoxicity) assay, neuroblastoma cells. The settings on record: Homo sapiens, 48 hours, CCK8 or Alamar Blue, curves of Fig. 1f-j, read-out: Half maximal inhibitory concentration (IC50) in cell line cytotoxicity assays, Neuroblastoma.
The test system of test [3] is mantle cell lymphoma (Granta-519, Mino, and Jeko-1). As to the kind of experiment: Cell viability (cytotoxicity) assay, mantle cell lymphoma cells. The conditions noted are these: Homo sapiens; 48 hours, CCK8 or Alamar Blue; curves of Fig. 1f-j; read-out: Half maximal inhibitory concentration (IC50) in cell line cytotoxicity assays, Mantle Cell Lymphoma.

In the case of `CC(=O)c1c(C)c2cnc(Nc3ccc(N4CCNCC4)cn3)nc2n(C2CCCC2)c1=O` [Palbociclib, reference compound], the IC50 in test [1] stood at 11.9 µM; in test [2] it was 9.2 µM; in test [3], 8.4 µM.
